In patent publication US8173635B2, “Kinase inhibitors” (Vertex Pharmaceuticals Incorporated, priority 2007, dated 2012):
pKi: −log10 of the molar value. Where two headings read alike, the source gives them in different places.

Tests used:
Format in all cases: biochemical
[1] = target: PKC alpha kinase (Homo sapiens, UniProt P17252); assay: PKC alpha kinase inhibition, coupled-enzyme NADH absorbance assay (Ki)
Description: An assay buffer solution was prepared which consisted of 100 mM HEPES (pH 7.5), 10 mM MgCl2, 25 mM NaCl, 0.1 mM EDTA, 100 μM CaCl2 and 0.01% Brij. […] To 16 μL of this enzyme buffer, in a 384 well plate, was added 1 μL of VRT stock solution in DMSO. The mixture was allowed to equilibrate for 10 mins at 30° C. The enzyme reaction was initiated by the addition of 16 μL stock ATP solution prepared in assay buffer to a final assay concentration of 130 μM. Initial rate data was determined from the rate of change of absorbance at 340 nm (corresponding to stoichiometric consumption of NADH) using a Molecular Devices Spectramax plate reader (Sunnyvale, Calif.) over 15 mins at 30° C. […] Ki values were calculated from initial rate data by non-linear regression using the Prism software package (Prism 4.0a, Graphpad Software, San Diego, Calif.).

[2] = target: PKC delta kinase (Homo sapiens, UniProt Q05655); assay: PKC delta kinase inhibition, coupled-enzyme NADH absorbance assay (Ki)
Description: (§1) An assay buffer solution was prepared which consisted of 100 mM HEPES (pH 7.5), 10 mM MgCl2, 25 mM NaCl, 0.1 mM EDTA and 0.01% Brij. […] To 16 μL of this enzyme buffer, in a 384 well plate, was added 1 μL of VRT stock solution in DMSO. The mixture was allowed to equilibrate for 10 mins at 30° C. […] Ki values were calculated from initial rate data by non-linear regression using the Prism software package (Prism 4.0a, Graphpad Software, San Diego, Calif.).

[3] = target: PKC theta kinase (Homo sapiens, UniProt Q04759); assay: PKC theta kinase inhibition, coupled-enzyme NADH absorbance assay (Ki)
Description: as §1, with “To 60” for “To 16”, “added 2” for “added 1”

[4] = 130 μM ATP, 4.5 nM PKC alpha, 30° C., read-out: Ki PKC alpha
[5] = 150 μM ATP, 46 nM PKC delta, 30° C., read-out: Ki PKC delta
[6] = 240 μM ATP, 18 nM PKC theta, 30° C., read-out: Ki PKC theta

Chain of PKC theta kinase (Q04759 whole entry): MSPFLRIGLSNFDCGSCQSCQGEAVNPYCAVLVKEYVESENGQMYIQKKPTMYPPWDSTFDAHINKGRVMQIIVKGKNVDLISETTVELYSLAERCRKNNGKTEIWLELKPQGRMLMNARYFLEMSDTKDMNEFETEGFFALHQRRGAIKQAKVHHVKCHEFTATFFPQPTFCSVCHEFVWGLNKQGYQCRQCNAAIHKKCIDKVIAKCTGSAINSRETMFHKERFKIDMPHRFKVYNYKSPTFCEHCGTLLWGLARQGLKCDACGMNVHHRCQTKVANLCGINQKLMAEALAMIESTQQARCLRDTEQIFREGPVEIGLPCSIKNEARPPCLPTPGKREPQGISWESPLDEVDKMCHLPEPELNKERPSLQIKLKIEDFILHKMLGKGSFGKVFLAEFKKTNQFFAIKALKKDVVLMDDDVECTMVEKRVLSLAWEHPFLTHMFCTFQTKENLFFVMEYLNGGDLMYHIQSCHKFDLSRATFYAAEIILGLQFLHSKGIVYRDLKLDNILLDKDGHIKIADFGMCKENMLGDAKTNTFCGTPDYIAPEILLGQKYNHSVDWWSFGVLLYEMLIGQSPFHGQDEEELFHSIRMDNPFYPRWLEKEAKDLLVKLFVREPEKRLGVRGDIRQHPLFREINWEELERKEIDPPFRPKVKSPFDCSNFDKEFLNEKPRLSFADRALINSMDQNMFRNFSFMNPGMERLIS
Chain of PKC delta kinase (Q05655 whole entry): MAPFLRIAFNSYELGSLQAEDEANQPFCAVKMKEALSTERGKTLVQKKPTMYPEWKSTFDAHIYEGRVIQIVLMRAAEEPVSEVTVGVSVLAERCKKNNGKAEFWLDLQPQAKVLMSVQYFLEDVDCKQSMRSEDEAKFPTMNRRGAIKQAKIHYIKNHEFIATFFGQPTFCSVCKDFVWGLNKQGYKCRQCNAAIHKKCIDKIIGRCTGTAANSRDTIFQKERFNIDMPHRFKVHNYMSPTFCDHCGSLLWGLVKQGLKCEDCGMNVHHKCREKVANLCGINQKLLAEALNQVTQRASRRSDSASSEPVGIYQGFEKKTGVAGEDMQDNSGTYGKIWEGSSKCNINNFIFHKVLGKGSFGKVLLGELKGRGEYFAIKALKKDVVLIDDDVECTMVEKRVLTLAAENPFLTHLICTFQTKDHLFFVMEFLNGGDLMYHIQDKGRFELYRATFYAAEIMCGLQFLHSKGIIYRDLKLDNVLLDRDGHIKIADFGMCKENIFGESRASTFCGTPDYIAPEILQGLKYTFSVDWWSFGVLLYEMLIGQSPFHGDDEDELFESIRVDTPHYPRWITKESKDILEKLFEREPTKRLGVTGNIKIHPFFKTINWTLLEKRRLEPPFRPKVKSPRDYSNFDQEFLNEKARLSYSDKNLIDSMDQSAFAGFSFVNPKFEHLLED

Compound | pKi [1, 4] | pKi [2, 5] | pKi [3, 6] | pKi [1] | pKi [2] | pKi [3]
CCCc1cc(-c2ccnc3[nH]ncc23)cc(C2(CN)CCCC2)c1 [Compound 147] | < 5.55 | < 5.55 | > 6.30 |  |  | 
CCC(C)(CN)c1cc(CCC(F)F)cc(-c2ccnc3[nH]ncc23)c1 (stereo not drawn) [Compound 161] | > 5.55 | < 5.70 | > 6.30 |  |  | 
CCCc1cc(-c2ccnc3[nH]ncc23)cc(C(C)(C)C#N)c1 [Compound 57] | > 5.55 | < 5.55 | > 7.30 |  |  | 
COCC[C@@](C)(CN)c1cccc(-c2ccnc3[nH]nc(C(F)(F)F)c23)c1 [Compound 286] | > 6.30 | > 6.30 | > 7.30 |  |  | 
NCC1(c2cccc(-c3ccnc4[nH]ncc34)c2)CCC1 [Compound 49] | > 5.55 | > 6.30 | > 7.30 |  |  | 
CC/C=C\C1(c2cccc(-c3ccnc4[nH]ncc34)c2)CCNC1 (stereo not drawn) [Compound 198] | > 6.30 | > 6.30 | > 7.30 |  |  | 
N#CC(CCN)c1cccc(-c2ccnc3[nH]ncc23)c1 (stereo not drawn) [Compound 225] | > 5.55 | > 5.55 | > 6.30 |  |  | 
CCC(C)(C#N)c1cc(-c2ccnc3[nH]ncc23)cc(C(C)(F)F)c1 (stereo not drawn) [Compound 111] | > 6.30 | > 5.55 | > 7.30 |  |  | 
Cc1cc(-c2ccnc3[nH]nc(C4CC4)c23)cc(C2(CN)CC2)c1 [Compound 268] | > 6.30 | > 6.30 | > 7.30 |  |  | 
NCC1(c2cc(F)cc(-c3ccnc4[nH]nc(C5CC5)c34)c2)CCC1 [Compound 267] | > 6.30 | > 6.30 | > 7.30 |  |  | 
Cc1cc(-c2ccnc3[nH]nc(Cl)c23)cc(C2(CN)CCC2)c1 [Compound 207] | > 6.30 | > 6.30 | > 7.30 |  |  | 
COc1cc(-c2ccnc3[nH]ncc23)cc(C(C)(C)CN)c1 [Compound 142] | > 5.55 | > 5.55 | > 6.30 |  |  | 
C#Cc1cc(-c2ccnc3[nH]ncc23)cc(C(C)(C)CN)c1 [Compound 40] | > 5.55 | > 6.30 | > 6.30 |  |  | 
NCCc1cc(Br)cc(-c2ccnc3[nH]ncc23)c1 [Compound 176] |  |  |  | < 5.92 | > 5.55 | > 6.30
CC1(c2cccc(-c3ccnc4[nH]ncc34)c2)CCNC1 (stereo not drawn) [Compound 195] | > 5.55 | > 6.30 | > 7.30 |  |  | 
COC(CN)c1cc(C)cc(-c2ccnc3[nH]ncc23)c1 (stereo not drawn) [Compound 248] | > 5.55 | > 5.55 | > 6.30 |  |  | 
Cc1cc(-c2ccnc3[nH]ncc23)cc(C2(C#N)CCC2)c1 [Compound 85] | > 5.55 | < 5.55 | > 7.30 |  |  | 
NCC1(c2cccc(-c3ccnc4[nH]ncc34)c2)CCCC1 [Compound 50] | > 5.55 | > 6.30 | > 7.30 |  |  | 
N#CC1(c2cc(CCCO)cc(-c3ccnc4[nH]nc(C(F)(F)F)c34)c2)CC1 [Compound 312] | > 6.30 | > 5.55 | > 7.30 |  |  | 
CC(C)(C#N)c1cc(N)cc(-c2ccnc3[nH]ncc23)c1 [Compound 13] | > 5.55 | > 5.55 | > 6.30 |  |  | 
N#CC1(c2cc(-c3ccnc4[nH]ncc34)cc(C(F)(F)C3CNC3)c2)CC1 [Compound 328] | > 5.55 | > 5.55 | > 7.30 |  |  | 
CCC(C)(CN)c1cc(CCCO)cc(-c2ccnc3[nH]nc(Cl)c23)c1 (stereo not drawn) [Compound 208] | > 6.30 | > 6.30 | > 7.30 |  |  | 
OCC1(c2cccc(-c3ccnc4[nH]ncc34)c2)CC1 [Compound 243] | < 5.92 | < 5.70 | > 6.30 |  |  | 
CC(C)C(O)c1cc(-c2ccnc3[nH]ncc23)cc(C(C)(C)C#N)c1 (stereo not drawn) [Compound 19] | < 5.55 | < 5.55 | > 6.30 |  |  | 
NCC1(c2cccc(-c3ccnc4[nH]ncc34)c2)COC1 [Compound 233] | < 5.92 | > 5.55 | > 6.30 |  |  | 
NC[C@]1(c2cccc(-c3ccnc4[nH]ncc34)c2)CC[C@@H](O)CC1 [Compound 182] | < 5.92 | > 5.55 | > 6.30 |  |  | 
